# Measurements published in patent publication US20220091133A1, “METHODS AND ASSAYS FOR IMMUNE PHENOTYPING” (Washington University, priority 2020, published 2022).
# How the values were obtained:
# lymphopenia in COVID-19 = settings: preliminary studies, reference 24; cited from earlier work
# [1] = test system: Trichosporon asahii and Saksenaea species; assay: Tissue, wound, blood and bone cultures of the fungal wound sepsis patient; assay type: in vivo, human
# From the text: They were aggressively treated with daily or alternating-day operative debridement, broad-spectrum parenteral and topical antibacterial and antifungal therapy. Antimicrobial therapy included ceftazidime, metronidazole, trimethoprim-sulfamethoxazole, micafungin, amphotericin B, and posaconazole (FIG. 29), as well as VERAFLO vac instillation of antimicrobials into the wound bed. The patient's polymicrobial soft tissue infection continued to advance and was accompanied by multisystem organ failure and shock. Over a 4-week period, they required debridement of >3000 cm^2 of skin, subcutaneous tissue, and muscle involving the entire perineum, bilateral thighs, buttocks, and circumferential abdominal wall (FIG. 28B).
# Tissue histology also became negative for fungus at approximately the same time as tissue cultures (FIG. 28E).
# fungal sepsis = settings: in vivo; cited from earlier work
# [2] = Serial plasma cytokines, ProcartaPlex 9-plex Luminex panel (Example 5); assay type: in vivo, human; settings: plasma of critically ill COVID-19 patient
substance,measurement,setting,value
"IL-7: recombinant human IL-7, immunoadjuvant and potent T cell activator; R&D Systems ex vivo, RevImmune for patients",increase of ALCs in COVID-19 disease patients treated with IL-7,lymphopenia in COVID-19,two- to three-fold
same,tolerability of IL-7 in COVID-19 disease patients,lymphopenia in COVID-19,well tolerated
same,tissue cultures after initiation of IL-7 therapy,[1]; by the fifth dose of IL-7,persistently negative cultures
same,"time blood, wound and bone cultures stayed negative for bacterial or fungal pathogens after completing IL-7 therapy","[1]; human, in vivo",40 days
same,increase of absolute lymphocyte count (ALC),SARS-CoV-2; COVID-19 patient after IL-7,~10 fold
same,"discharged home, day of hospitalization",SARS-CoV-2; after IL-7 therapy,24 days
same,"mechanical ventilation discontinued, day after ICU admission",SARS-CoV-2; after initiation of IL-7 therapy,15 days
same,survival in a 2-hit animal model of fungal sepsis,fungal sepsis,increase survival
same,IFN-γ plasma concentration,"[2]; Post IL-7, Day 12",Undetectable
same,IL-1β plasma concentration,"[2]; Post IL-7, Day 12",Undetectable
same,IL-2 plasma concentration,"[2]; Post IL-7, Day 12",Undetectable
same,IL-6 plasma concentration,"[2]; Post IL-7, Day 12",30 pg/mL
same,IL-10 plasma concentration,"[2]; Post IL-7, Day 12",2.71 pg/mL
same,IL-12 plasma concentration,"[2]; Post IL-7, Day 12",Undetectable
same,IL-17 plasma concentration,"[2]; Post IL-7, Day 12",0.14 pg/mL
same,Tumor necrosis factor-α plasma concentration,"[2]; Post IL-7, Day 12",Undetectable
same,IFN-γ plasma concentration,"[2]; Post IL-7, Day 21",Undetectable
same,IL-1β plasma concentration,"[2]; Post IL-7, Day 21",Undetectable
same,IL-2 plasma concentration,"[2]; Post IL-7, Day 21",Undetectable
same,IL-6 plasma concentration,"[2]; Post IL-7, Day 21",6 pg/mL
same,IL-10 plasma concentration,"[2]; Post IL-7, Day 21",0.83 pg/mL
same,IL-12 plasma concentration,"[2]; Post IL-7, Day 21",Undetectable
same,IL-17 plasma concentration,"[2]; Post IL-7, Day 21",0.12 pg/mL
same,Tumor necrosis factor-α plasma concentration,"[2]; Post IL-7, Day 21",Undetectable
